# Laboratory results: patent US8192962B2, “Processes for detecting toxic substances” (Daikin Industries, Ltd., priority 2001, dated 2012)
# System: Metabolism protein genes
# Experiment: DNA chip mRNA expression in yeast, metabolism protein genes (Table 7)
# Assay type: cell-based, Saccharomyces cerevisiae S288C
# How it was run: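 In this screen, yeast in logarithmic growth are challenged for two hours with a toxic substance at a non-lethal inhibitory concentration. Their mRNA, converted to Cy3- or Cy5-labeled cDNA, hybridizes at 65° C. to a chip spanning every yeast gene, and expression is expressed as a ratio to untreated cells.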
smiles,measurement,setting,value
"[Cl][Hg][Cl] [(3), HgCl2]",The level of expressed mRNA in the presence of chemical substance/The level of expressed mRNA in the absence of chemical substance,yeast gene YJR155W,1.4
same,The level of expressed mRNA in the presence of chemical substance/The level of expressed mRNA in the absence of chemical substance,yeast gene YKL035W,4.8
same,level of expressed mRNA in the presence/in the absence of chemical substance,yeast gene YKL060C,2.5
same,The level of expressed mRNA in the presence of chemical substance/The level of expressed mRNA in the absence of chemical substance,yeast gene YKL091C,1.4
same,The level of expressed mRNA in the presence of chemical substance/The level of expressed mRNA in the absence of chemical substance,yeast gene YKL104C,1.6
same,level of expressed mRNA in the presence/in the absence of chemical substance,yeast gene YKL148C,3.7
same,The level of expressed mRNA in the presence of chemical substance/The level of expressed mRNA in the absence of chemical substance,yeast gene YKL152C,1.9
same,level of expressed mRNA in the presence/in the absence of chemical substance,yeast gene YKL157W,2.3
same,The level of expressed mRNA in the presence of chemical substance/The level of expressed mRNA in the absence of chemical substance,yeast gene YKL213C,1.0
same,The level of expressed mRNA in the presence of chemical substance/The level of expressed mRNA in the absence of chemical substance,yeast gene YKL215C,1.3
same,level of expressed mRNA in the presence/in the absence of chemical substance,yeast gene YKR034W,1.1
same,The level of expressed mRNA in the presence of chemical substance/The level of expressed mRNA in the absence of chemical substance,yeast gene YLL058W,1.4
same,level of expressed mRNA in the presence/in the absence of chemical substance,yeast gene YLR006C,0.9
same,level of expressed mRNA in the presence/in the absence of chemical substance,yeast gene YLR044C,2.2
same,level of expressed mRNA in the presence/in the absence of chemical substance,yeast gene YLR056W,2.5
same,level of expressed mRNA in the presence/in the absence of chemical substance,yeast gene YLR058C,5.5
same,level of expressed mRNA in the presence/in the absence of chemical substance,yeast gene YLR081W,2.8
same,level of expressed mRNA in the presence/in the absence of chemical substance,yeast gene YLR089C,2.1
same,The level of expressed mRNA in the presence of chemical substance/The level of expressed mRNA in the absence of chemical substance,yeast gene YLR180W,2.4
same,The level of expressed mRNA in the presence of chemical substance/The level of expressed mRNA in the absence of chemical substance,yeast gene YLR273C,1.3
same,level of expressed mRNA in the presence/in the absence of chemical substance,yeast gene YLR284C,3.8
same,The level of expressed mRNA in the presence of chemical substance/The level of expressed mRNA in the absence of chemical substance,yeast gene YLR299W,1.5
same,The level of expressed mRNA in the presence of chemical substance/The level of expressed mRNA in the absence of chemical substance,yeast gene YLR300W,0.8
same,level of expressed mRNA in the presence/in the absence of chemical substance,yeast gene YLR304C,5.0
same,The level of expressed mRNA in the presence of chemical substance/The level of expressed mRNA in the absence of chemical substance,yeast gene YLR307W,0.7
same,The level of expressed mRNA in the presence of chemical substance/The level of expressed mRNA in the absence of chemical substance,yeast gene YLR348C,1.2
same,level of expressed mRNA in the presence/in the absence of chemical substance,yeast gene YLR354C,2.3
same,level of expressed mRNA in the presence/in the absence of chemical substance,yeast gene YLR372W,1.7
same,level of expressed mRNA in the presence/in the absence of chemical substance,yeast gene YML022W,2.0
same,The level of expressed mRNA in the presence of chemical substance/The level of expressed mRNA in the absence of chemical substance,yeast gene YML054C,1.3
same,The level of expressed mRNA in the presence of chemical substance/The level of expressed mRNA in the absence of chemical substance,yeast gene YML070W,2.5
same,The level of expressed mRNA in the presence of chemical substance/The level of expressed mRNA in the absence of chemical substance,yeast gene YML100W,10.6
same,The level of expressed mRNA in the presence of chemical substance/The level of expressed mRNA in the absence of chemical substance,yeast gene YMR008C,1.4
same,level of expressed mRNA in the presence/in the absence of chemical substance,yeast gene YMR011W,9.4
same,level of expressed mRNA in the presence/in the absence of chemical substance,yeast gene YMR015C,1.9
same,The level of expressed mRNA in the presence of chemical substance/The level of expressed mRNA in the absence of chemical substance,yeast gene YMR020W,0.9
same,level of expressed mRNA in the presence/in the absence of chemical substance,yeast gene YMR083W,2.6
same,The level of expressed mRNA in the presence of chemical substance/The level of expressed mRNA in the absence of chemical substance,yeast gene YMR105C,5.0
same,The level of expressed mRNA in the presence of chemical substance/The level of expressed mRNA in the absence of chemical substance,yeast gene YMR189W,1.9
same,level of expressed mRNA in the presence/in the absence of chemical substance,yeast gene YMR205C,2.3
same,level of expressed mRNA in the presence/in the absence of chemical substance,yeast gene YMR261C,3.6
same,The level of expressed mRNA in the presence of chemical substance/The level of expressed mRNA in the absence of chemical substance,yeast gene YMR271C,1.3
same,The level of expressed mRNA in the presence of chemical substance/The level of expressed mRNA in the absence of chemical substance,yeast gene YMR296C,1.2
same,level of expressed mRNA in the presence/in the absence of chemical substance,yeast gene YMR323W,2.9
same,The level of expressed mRNA in the presence of chemical substance/The level of expressed mRNA in the absence of chemical substance,yeast gene YNL012W,1.8
same,level of expressed mRNA in the presence/in the absence of chemical substance,yeast gene YNL025C,1.4
same,The level of expressed mRNA in the presence of chemical substance/The level of expressed mRNA in the absence of chemical substance,yeast gene YNL045W,2.0
same,The level of expressed mRNA in the presence of chemical substance/The level of expressed mRNA in the absence of chemical substance,yeast gene YNL104C,3.0
same,The level of expressed mRNA in the presence of chemical substance/The level of expressed mRNA in the absence of chemical substance,yeast gene YNL106C,0.8
same,The level of expressed mRNA in the presence of chemical substance/The level of expressed mRNA in the absence of chemical substance,yeast gene YNL169C,1.4
same,level of expressed mRNA in the presence/in the absence of chemical substance,yeast gene YNL192W,1.5
same,The level of expressed mRNA in the presence of chemical substance/The level of expressed mRNA in the absence of chemical substance,yeast gene YNL231C,0.8
same,The level of expressed mRNA in the presence of chemical substance/The level of expressed mRNA in the absence of chemical substance,yeast gene YNL322C,1.9
same,The level of expressed mRNA in the presence of chemical substance/The level of expressed mRNA in the absence of chemical substance,yeast gene YNL331C,1.3
same,The level of expressed mRNA in the presence of chemical substance/The level of expressed mRNA in the absence of chemical substance,yeast gene YNL332W,1.1
same,The level of expressed mRNA in the presence of chemical substance/The level of expressed mRNA in the absence of chemical substance,yeast gene YNR019W,1.6
same,The level of expressed mRNA in the presence of chemical substance/The level of expressed mRNA in the absence of chemical substance,yeast gene YNR033W,0.8
same,The level of expressed mRNA in the presence of chemical substance/The level of expressed mRNA in the absence of chemical substance,yeast gene YNR059W,0.2
same,The level of expressed mRNA in the presence of chemical substance/The level of expressed mRNA in the absence of chemical substance,yeast gene YOL058W,1.7
same,level of expressed mRNA in the presence/in the absence of chemical substance,yeast gene YOL086C,2.2
same,level of expressed mRNA in the presence/in the absence of chemical substance,yeast gene YOL108C,0.4
same,level of expressed mRNA in the presence/in the absence of chemical substance,yeast gene YOL116W,0.9
same,The level of expressed mRNA in the presence of chemical substance/The level of expressed mRNA in the absence of chemical substance,yeast gene YOL126C,1.0
same,The level of expressed mRNA in the presence of chemical substance/The level of expressed mRNA in the absence of chemical substance,yeast gene YOL153C,2.1
same,level of expressed mRNA in the presence/in the absence of chemical substance,yeast gene YOL156W,2.5
same,The level of expressed mRNA in the presence of chemical substance/The level of expressed mRNA in the absence of chemical substance,yeast gene YOL165C,1.8
same,level of expressed mRNA in the presence/in the absence of chemical substance,yeast gene YOR002W,1.9
same,level of expressed mRNA in the presence/in the absence of chemical substance,yeast gene YOR085W,1.9
same,The level of expressed mRNA in the presence of chemical substance/The level of expressed mRNA in the absence of chemical substance,yeast gene YOR099W,2.1
same,level of expressed mRNA in the presence/in the absence of chemical substance,yeast gene YOR103C,1.3
same,level of expressed mRNA in the presence/in the absence of chemical substance,yeast gene YOR108W,2.3
same,level of expressed mRNA in the presence/in the absence of chemical substance,yeast gene YOR128C,2.1
same,The level of expressed mRNA in the presence of chemical substance/The level of expressed mRNA in the absence of chemical substance,yeast gene YOR130C,1.4
same,level of expressed mRNA in the presence/in the absence of chemical substance,yeast gene YOR142W,3.4
same,level of expressed mRNA in the presence/in the absence of chemical substance,yeast gene YOR176W,2.7
same,level of expressed mRNA in the presence/in the absence of chemical substance,yeast gene YOR178C,4.8
same,level of expressed mRNA in the presence/in the absence of chemical substance,yeast gene YOR251C,1.3
same,The level of expressed mRNA in the presence of chemical substance/The level of expressed mRNA in the absence of chemical substance,yeast gene YOR336W,0.7
same,The level of expressed mRNA in the presence of chemical substance/The level of expressed mRNA in the absence of chemical substance,yeast gene YOR347C,2.1
same,level of expressed mRNA in the presence/in the absence of chemical substance,yeast gene YOR348C,1.2
same,The level of expressed mRNA in the presence of chemical substance/The level of expressed mRNA in the absence of chemical substance,yeast gene YPL017C,0.8
same,level of expressed mRNA in the presence/in the absence of chemical substance,yeast gene YPL028W,2.6
same,level of expressed mRNA in the presence/in the absence of chemical substance,yeast gene YPL057C,3.2
same,level of expressed mRNA in the presence/in the absence of chemical substance,yeast gene YPL135W,2.5
same,level of expressed mRNA in the presence/in the absence of chemical substance,yeast gene YPL148C,0.9
same,The level of expressed mRNA in the presence of chemical substance/The level of expressed mRNA in the absence of chemical substance,yeast gene YPR026W,5.0
same,level of expressed mRNA in the presence/in the absence of chemical substance,yeast gene YPR113W,3.7
same,level of expressed mRNA in the presence/in the absence of chemical substance,yeast gene YPR165W,1.6
same,The level of expressed mRNA in the presence of chemical substance/The level of expressed mRNA in the absence of chemical substance,yeast gene YPR167C,1.9
same,level of expressed mRNA in the presence/in the absence of chemical substance,yeast gene YPR183W,3.5
